Data taken from ChEMBL document CHEMBL4715869, “N-(Pyrimidin-2-yl)-1,2,3,4-tetrahydroisoquinolin-6-amine Derivatives as Selective Janus Kinase 2 Inhibitors for the Treatment of Myeloproliferative Neoplasms” (J Med Chem, 2020).
The source made the active and inactive calls. The rule behind the calls is not given here.

Assays:
[1] = target: Tyrosine-protein kinase JAK1 (Homo sapiens, UniProt P23458); experiment: Inhibition of human JAK1 (866 to end residues) using GEEPLYWSFPAKKK as substrate after 40 mins by [gamma-33ATP] radiometric assay
Sequence of Tyrosine-protein kinase JAK1 (P23458 whole entry): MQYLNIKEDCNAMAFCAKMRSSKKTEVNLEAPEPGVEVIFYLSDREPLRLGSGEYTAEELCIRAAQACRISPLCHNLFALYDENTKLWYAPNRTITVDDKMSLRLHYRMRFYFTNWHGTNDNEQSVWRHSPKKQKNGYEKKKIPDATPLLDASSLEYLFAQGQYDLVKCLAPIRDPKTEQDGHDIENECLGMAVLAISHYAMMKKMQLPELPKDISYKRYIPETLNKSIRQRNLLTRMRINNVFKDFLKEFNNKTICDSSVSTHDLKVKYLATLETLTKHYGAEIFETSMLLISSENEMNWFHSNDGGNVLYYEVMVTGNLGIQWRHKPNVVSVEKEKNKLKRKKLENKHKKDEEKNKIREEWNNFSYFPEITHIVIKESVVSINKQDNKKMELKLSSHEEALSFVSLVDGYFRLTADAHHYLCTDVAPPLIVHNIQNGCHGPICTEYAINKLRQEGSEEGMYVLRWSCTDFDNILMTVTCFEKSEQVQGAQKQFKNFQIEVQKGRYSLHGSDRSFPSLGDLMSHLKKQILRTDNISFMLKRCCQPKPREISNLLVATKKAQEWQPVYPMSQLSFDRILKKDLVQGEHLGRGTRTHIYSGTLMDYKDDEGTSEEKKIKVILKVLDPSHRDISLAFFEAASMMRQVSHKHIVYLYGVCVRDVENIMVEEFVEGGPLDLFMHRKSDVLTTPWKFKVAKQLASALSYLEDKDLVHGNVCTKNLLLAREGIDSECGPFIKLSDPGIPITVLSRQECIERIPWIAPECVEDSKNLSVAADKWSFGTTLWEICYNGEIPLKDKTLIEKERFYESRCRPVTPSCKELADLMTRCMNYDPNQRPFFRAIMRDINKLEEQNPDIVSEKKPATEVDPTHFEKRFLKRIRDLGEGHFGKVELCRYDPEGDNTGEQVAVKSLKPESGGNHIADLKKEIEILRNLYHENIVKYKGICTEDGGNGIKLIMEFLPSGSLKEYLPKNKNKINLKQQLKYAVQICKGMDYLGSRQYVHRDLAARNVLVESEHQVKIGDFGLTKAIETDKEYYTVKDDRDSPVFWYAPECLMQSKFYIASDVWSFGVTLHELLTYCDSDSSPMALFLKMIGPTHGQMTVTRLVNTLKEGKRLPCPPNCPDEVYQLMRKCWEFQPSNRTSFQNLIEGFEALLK

[2] = target: Receptor-type tyrosine-protein kinase FLT3 (Homo sapiens, UniProt P36888, D835Y); experiment: Inhibition of recombinant human FLT3 D835Y mutant (564 to end residues) using EAIYAAPFAKKK as substrate at 40 mins in presence of [gamma-33ATP] by scintillation counting based radiometry assay
[3] = Selectivity index, ratio of IC50 for inhibition of recombinant human JAK3 (781 to end residues) to IC50 for inhibition of recombinant human JAK2 (808 to end residues)
[4] = test system: Vero; experiment: Cytotoxicity against African green monkey Vero cells assessed as reduction in cell viability incubated for 72 hrs by MTT assay; assay type: cell-based; settings: Chlorocebus sabaeus
[5] = Cytotoxicity against rat H9c2(2-1) cells assessed as reduction in cell viability incubated for 72 hrs by MTT assay; assay type: cell-based; settings: H9c2, 72 h
[6] = Intrinsic clearance in rat liver microsomes; assay type: ADME, Microsome; settings: read-out: CLH (converted)
[7] = Cmax in male Sprague-Dawley rat at 5 mg/kg, po administered via gavage measured upto 24 hrs by LC/MS/MS analysis; assay type: ADME, organism-based; design: route oral, dose 5 mg/kg, time <=24; settings: in vivo
[8] = Apparent clearance in Sprague-Dawley rat at 5 mg/kg, po administered via gavage measured upto 24 hrs by LC/MS/MS analysis; assay type: ADME, organism-based; settings: in vivo, read-out: CL(app) (converted)
[9] = Tmax in male Sprague-Dawley rat at 5 mg/kg, iv administered […] measured upto 24 hrs by LC/MS/MS analysis; assay type: ADME, organism-based; settings: in vivo
[10] = Elimination half life in male Sprague-Dawley rat at 5 mg/kg, iv administered […] measured upto 24 hrs by LC/MS/MS analysis; assay type: ADME, organism-based; settings: in vivo, read-out: beta t1/2 (converted)
[11] = AUC (0 to t) in Sprague-Dawley rat at 5 mg/kg, iv administered […] measured upto 24 hrs by LC/MS/MS analysis; assay type: ADME, organism-based; design: route intravenous, dose 5 mg/kg, time <=24; settings: in vivo
[12] = Toxicity in NOD/SCID mouse xenografted with human SET2 cells assessed as animal survival at 15 mg/kg, po qd administered for 16 days and measured every 2 days; assay type: organism-based; settings: in vivo, 384 h, time 16 day
[13] = Toxicity in NOD/SCID mouse xenografted with human SET2 cells assessed as animal death at 15 to 60 mg/kg, po qd administered for 16 days and measured after 36 days; assay type: organism-based; settings: in vivo, 864 h, dose 15-60 mg/kg, time 36 day
[14] = test system: BaF3; experiment: Antitumor activity against mouse BAF3 cells harboring JAK2 V617F mutant implanted in Balb/c mouse assessed as decrease in spleen weight at 30 mg/kg, po qd administered starting from day 4 to 20 and measured on day 25 relative to control; assay type: functional; design: scale not given: the % may be the effect or the level left; settings: time 21 day
[15] = test system: BaF3; experiment: Antitumor activity against mouse BAF3 cells harboring JAK2 V617F mutant implanted in Balb/c mouse assessed as decrease in spleen weight at 60 mg/kg, po qd administered starting from day 4 to 20 and measured on day 25 relative to control; assay type: functional; design: scale not given: the % may be the effect or the level left; settings: time 21 day
[16] = test system: SET-2; experiment: Induction of apoptosis in human SET-2 cells assessed as necrotic cells at 0.05 uM incubated for 24 hrs by Annexin V/PI staining based flow cytometric analysis (reference value: 0.78%); assay type: functional
[17] = test system: SET-2; experiment: Induction of apoptosis in human SET-2 cells assessed as early apoptotic cells at 0.05 uM incubated for 24 hrs by Annexin V/PI staining based flow cytometric analysis (reference value: 1.47 %); assay type: functional
[18] = test system: SET-2; experiment: Induction of apoptosis in human SET-2 cells assessed as necrotic cells at 0.2 uM incubated for 24 hrs by Annexin V/PI staining based flow cytometric analysis (reference value: 0.78%); assay type: functional
[19] = test system: SET-2; experiment: Induction of apoptosis in human SET-2 cells assessed as late apoptotic cells at 0.2 uM incubated for 24 hrs by Annexin V/PI staining based flow cytometric analysis (reference value: 1.52%); assay type: functional
[20] = test system: SET-2; experiment: Induction of apoptosis in human SET-2 cells assessed as early apoptotic cells at 0.2 uM incubated for 24 hrs by Annexin V/PI staining based flow cytometric analysis (reference value: 1.47 %); assay type: functional
[21] = test system: SET-2; experiment: Induction of apoptosis in human SET-2 cells assessed as necrotic cells at 0.4 uM incubated for 24 hrs by Annexin V/PI staining based flow cytometric analysis (reference value: 0.78%); assay type: functional
[22] = test system: SET-2; experiment: Induction of apoptosis in human SET-2 cells assessed as live cells at 0.8 uM incubated for 24 hrs by Annexin V/PI staining based flow cytometric analysis (reference value: 96.23 %); assay type: functional
[23] = test system: SET-2; experiment: Induction of apoptosis in human SET-2 cells assessed as necrotic cells at 1.6 uM incubated for 24 hrs by Annexin V/PI staining based flow cytometric analysis (reference value: 0.78%); assay type: functional
[24] = test system: SET-2; experiment: Induction of apoptosis in human SET-2 cells assessed as live cells at 1.6 uM incubated for 24 hrs by Annexin V/PI staining based flow cytometric analysis (reference value: 96.23 %); assay type: functional
[25] = test system: SET-2; experiment: Induction of apoptosis in human SET-2 cells assessed as early apoptotic cells at 1.6 uM incubated for 24 hrs by Annexin V/PI staining based flow cytometric analysis (reference value: 1.47 %); assay type: functional
[26] = test system: Tyrosine-protein kinase JAK2 (Homo sapiens), O60674 [V617F]; experiment: Inhibition of JAK2 V617F mutant in human SET-2 cells assessed as reduction in JAk2 phosphorylation after 2 hrs by Western blot analysis; assay type: cell-based; settings: SET2, dose 1-1000 nM
Sequence of Tyrosine-protein kinase JAK2 (Homo sapiens), O60674 [V617F] (O60674 whole entry V617F): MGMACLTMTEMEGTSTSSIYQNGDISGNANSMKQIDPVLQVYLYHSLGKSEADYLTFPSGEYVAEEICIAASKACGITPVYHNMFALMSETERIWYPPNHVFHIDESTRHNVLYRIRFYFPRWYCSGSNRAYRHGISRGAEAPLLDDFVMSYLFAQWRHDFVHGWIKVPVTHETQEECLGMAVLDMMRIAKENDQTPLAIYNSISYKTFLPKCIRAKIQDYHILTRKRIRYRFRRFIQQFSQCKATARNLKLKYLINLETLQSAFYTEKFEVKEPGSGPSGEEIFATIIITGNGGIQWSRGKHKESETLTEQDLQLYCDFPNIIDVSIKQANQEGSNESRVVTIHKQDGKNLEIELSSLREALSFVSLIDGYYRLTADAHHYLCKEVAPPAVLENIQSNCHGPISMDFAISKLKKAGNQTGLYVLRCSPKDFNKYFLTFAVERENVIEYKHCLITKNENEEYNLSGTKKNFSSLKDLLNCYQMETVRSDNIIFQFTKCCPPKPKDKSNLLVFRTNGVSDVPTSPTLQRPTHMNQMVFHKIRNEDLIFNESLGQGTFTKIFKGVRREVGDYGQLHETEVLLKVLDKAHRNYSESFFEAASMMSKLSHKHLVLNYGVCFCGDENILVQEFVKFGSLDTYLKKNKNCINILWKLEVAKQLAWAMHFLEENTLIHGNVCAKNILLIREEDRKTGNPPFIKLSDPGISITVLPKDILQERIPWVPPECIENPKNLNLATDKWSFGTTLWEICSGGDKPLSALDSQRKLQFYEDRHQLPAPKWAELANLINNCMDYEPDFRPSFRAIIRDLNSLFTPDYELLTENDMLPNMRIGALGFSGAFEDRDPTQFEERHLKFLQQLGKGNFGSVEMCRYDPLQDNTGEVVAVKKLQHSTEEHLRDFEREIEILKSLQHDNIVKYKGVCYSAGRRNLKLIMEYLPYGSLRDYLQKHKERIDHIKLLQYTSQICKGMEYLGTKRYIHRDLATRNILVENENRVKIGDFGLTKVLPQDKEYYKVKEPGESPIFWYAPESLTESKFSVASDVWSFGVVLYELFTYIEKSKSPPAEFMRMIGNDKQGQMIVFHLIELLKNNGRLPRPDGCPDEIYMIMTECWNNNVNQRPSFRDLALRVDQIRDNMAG

[27] = test system: Tyrosine-protein kinase JAK2 (Homo sapiens), O60674 [V617F]; experiment: Inhibition of JAK2 V617F mutant in human SET-2 cells assessed as reduction in STAT5 phosphorylation after 2 hrs by Western blot analysis; assay type: cell-based; settings: SET2, dose 1-1000 nM
[28] = target: Receptor-type tyrosine-protein kinase FLT3 (Homo sapiens) (UniProt P36888); experiment: Inhibition of FLT3 in human SET2 cells assessed as decrease in AKT phosphorylation at 1 to 1000 nM after 2 hrs by Western blot analysis; assay type: cell-based; settings: dose 1-1000 nM
[29] = target: Signal transducer and activator of transcription 3 (Mus musculus) (UniProt P42227); experiment: Inhibition of STAT3 phosphorylation in mouse BAF3 cells at 1000 nM after 2 hrs by Western blot analysis; assay type: cell-based
Sequence of Signal transducer and activator of transcription 3 (Mus musculus) (P42227 whole entry): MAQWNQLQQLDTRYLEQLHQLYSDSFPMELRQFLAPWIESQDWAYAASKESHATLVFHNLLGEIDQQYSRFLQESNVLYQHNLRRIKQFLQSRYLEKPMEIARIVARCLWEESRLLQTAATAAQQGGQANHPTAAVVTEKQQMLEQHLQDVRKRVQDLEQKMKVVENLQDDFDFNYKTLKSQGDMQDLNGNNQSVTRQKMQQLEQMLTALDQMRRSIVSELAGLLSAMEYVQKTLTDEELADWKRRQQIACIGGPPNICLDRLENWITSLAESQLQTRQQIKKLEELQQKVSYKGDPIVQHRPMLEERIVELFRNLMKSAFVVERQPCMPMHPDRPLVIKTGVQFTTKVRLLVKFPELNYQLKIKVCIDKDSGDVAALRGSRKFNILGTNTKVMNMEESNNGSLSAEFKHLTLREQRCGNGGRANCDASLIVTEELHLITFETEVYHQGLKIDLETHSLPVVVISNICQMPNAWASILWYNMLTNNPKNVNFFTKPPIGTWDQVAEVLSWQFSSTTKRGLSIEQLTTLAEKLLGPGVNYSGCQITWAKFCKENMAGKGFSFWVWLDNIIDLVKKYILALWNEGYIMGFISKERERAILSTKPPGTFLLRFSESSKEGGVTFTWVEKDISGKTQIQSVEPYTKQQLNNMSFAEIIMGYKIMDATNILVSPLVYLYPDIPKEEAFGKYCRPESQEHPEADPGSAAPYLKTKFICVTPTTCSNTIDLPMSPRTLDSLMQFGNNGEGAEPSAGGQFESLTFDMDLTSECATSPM

[30] = Toxicity in Balb/c mouse assessed as effect on hematocrit at 30 to 60 mg/kg, po administered daily for 14 days; assay type: organism-based; settings: in vivo, 336 h, dose 30-60 mg/kg, time 14 day

With `Cc1cnc(Nc2ccc3c(c2)CCN(C(=O)/C=C/CN(C)C)C3)nc1-c1cnn(C(C)C)c1` the IC50 [1] was 0.042 µM, the IC50 [2] was 0.062 µM and the Ratio IC50 [3] was 31. It also gave an IC50 [4] of 6.75 µM, an IC50 [5] of 6.93 µM and a CLint scaled [6] of 423 mL/min/kg. For the same compound, the Cmax [7] was 51.1 ng/mL, the CL/F [8] was 480 mL/min/kg and the Tmax [9] was 4.8 min. For the same compound, the half-life [10] was 4 h, the AUC(0-t) at 24 h [11] was 988 ng·h/mL and the Activity [12] was “Non-Toxic”. For the same compound, the Activity [13] was “Toxic”, the Activity [14] was 44% and the Activity [15] was 77.1%. The Activity [16] was 0.35%, the Activity [17] was 2.7% and the Activity [18] was 0.63%. It also gave an Activity [19] of 5.66%, an Activity [20] of 3.36% and an Activity [21] of 0.48%. For the same compound, the Activity [22] was 49.33%, the Activity [23] was 4.04% and the Activity [24] was 23.03%. The Activity [25] was 27.3%, the inhibition [26] was “Dose-dependent effect” and the inhibition [27] was “Dose-dependent effect”. For the same compound, the inhibition [28] was “inactive”, the inhibition [29] was “inactive” and the Activity [30] was “Toxic”.
